Article PMC8277133, “Os(II)-Bridged Polyarginine Conjugates: The Additive Effects of Peptides in Promoting or Preventing Permeation in Cells and Multicellular Tumor Spheroids” (Inorganic Chemistry, 2021)
Where a SMILES comes first, the peptide text is derived from it. [ ]: non-standard residue; d: D form. The star is where a group is joined. X1 = O=C(c1ccc(-c2cc(-c3ccccn3)nc(-c3ccccn3)c2)cc1)*; Ahx = NCCCCCC(=O)O

Tests used:
A549 cells [1] = test: Confocal laser scanning microscopy uptake study in live A549 cells; format: cell-based; details: CLSM; for Cellular uptake / membrane permeation: live A549 cells, 24 h, 37 °C
Method: (§1) Two cell lines were studied: an adherent mammalian cell line, Chinese hamster ovarian (CHO–K1), and a lung carcinoma cancer cell line (A549). Dulbecco’s modified Eagle’s medium (DMEM)/Hams F-12 was used for CHO cells and DMEM for A549 cells. Both media were supplemented with 10% FBS and 1% penicillin–streptomycin. The cells were grown at 37 °C with 5% CO2 and sub-cultured at 90% confluency.
(§2) Uptake studies were carried out for A549 and CHO cell lines. Cells were seeded at 1.5 × 10^5 cells in 35 mm glass-bottom culture dishes (Ibidi, Germany). Cells were allowed to grow for 24 h at 37 °C with 5% CO2. […] The dye/media solution was removed, and cells were washed twice with supplemented phosphate-buffered saline (PBS, 1.1 mM MgCl2 and 0.9 mM CaCl2). Cells were directly imaged using a Leica TSP DMi8 confocal microscope (63× oil immersion objective lens unless stated otherwise) with a heated stage at 37 °C.
(§3) [Os-(Rn)2]^x+ (n = 4 and 8; x = 10^+ and 18^+) was excited using a 490 nm white light laser, and the emission range was set to be between 650 and 800 nm. DRAQ7, a nuclear staining dye, was added (3 μM) to distinguish intact live cells from permeabilized/dead cells. The 633 nm laser was used to excite DRAQ7, and emission was collected between 635 and 750 nm. For co-localization studies, MitoTracker Deep Red (100 nM) and LysoTracker Green (50 nM) were used to selectively stain mitochondria and lysosomes, respectively. MitoTracker Deep Red was excited at 644 nm and emission was collected between 655 and 720 nm, and LysoTracker Green was excited at 504 nm and emission was collected at 511 nm.

CHO cells [2] = test: DRAQ7 co-staining for damaged/dead cells, CHO; format: cell-based, Chinese hamster; details: 30 μM, 24 h
Method: (§4) Uptake studies were carried out for A549 and CHO cell lines. Cells were seeded at 1.5 × 10^5 cells in 35 mm glass-bottom culture dishes (Ibidi, Germany). Cells were allowed to grow for 24 h at 37 °C with 5% CO2. The growth medium was removed, and a specific concentration of [Os-(Rn)2]^x+ (n = 4 and 8; x = 10^+ and 18^+) was added and allowed to incubate for 24 and 48 h at 37 °C with 5% CO2 in the dark. The dye/media solution was removed, and cells were washed twice with supplemented phosphate-buffered saline (PBS, 1.1 mM MgCl2 and 0.9 mM CaCl2). Cells were directly imaged using a Leica TSP DMi8 confocal microscope (63× oil immersion objective lens unless stated otherwise) with a heated stage at 37 °C.
as §3

HPAC spheroids [3] = test: Confocal imaging of penetration into live HPAC multicellular tumor spheroids; format: cell-based, human; details: for Spheroid penetration / accumulation: 100 μM, 48 h, confocal microscopy, no permeant
Method: The human pancreatic cancer cell line (HPAC) was cultured in Gibco Roswell Park Memorial Institute medium supplemented with 5% FBS at 37 °C with 5% CO2. HPAC cells were seeded at 2.5 × 10^3 cells/well of 96-well round-bottom plates pre-coated with poly-Hema (poly-2-hydroxyethyl methacrylate, Sigma). Cells were allowed to be compact and form 3D spheroid structures after 72 h.
Spheroids were treated with [Os-(R4)2]^10+ at 30 μM for 24 h and 100 μM for 24 and 48 h. Control spheroids were treated with the parent complex [Os(tpybenzCOOH)2]^2+ and [Os-(R8)2]^18+ at 100 μM for 48 h. Non-treated spheroids were also prepared as a negative control. Spheroids were co-stained with DAPI at 10 μM for 90 min. Each spheroid was collected individually and embedded in collagen in eight-well chamber slides, incubated for 90 min, and observed under confocal microscopy.
For imaging, HPAC spheroids were plated in collagen-treated eight-well chamber slides. HPAC spheroids were directly imaged from the eight-well chamber using a Leica TSP DMi8 confocal microscope (10× dry and 40× oil immersion objective). Z-scanning was used to acquire images across the z-axis of the spheroid sample. On average, 45–50 images were acquired at approximately 5 μm apart. 3D Z-stack images were used for spheroid reconstructions and 2D projection images are also reported. The Os(II) parent complex and bioconjugates were excited using a 490 nm white light laser, and the emission range was set to be between 650 and 800 nm (a false red color was used for the Os(II) channel). DAPI was excited at 405 nm, and emission was collected between 423 and 580 nm.

CHO cells [4] = test: Confocal laser scanning microscopy uptake study in live CHO cells; format: cell-based, Chinese hamster; details: CLSM; for Cellular uptake / membrane permeation: live CHO cells, 24 h, 37 °C
Method: as §1, §2, §3

A549 cells [5] = test: DRAQ7 co-staining for damaged/dead cells, A549; format: cell-based
Method: as §4, §3

HPAC spheroids [6] = test: 3D spheroid viability, Alamar Blue; format: cell-based, human; details: 100 μM, 24 and 48 h, relative to untreated controls, n=2
Method: The 3D spheroid viability was evaluated using Alamar Blue. Briefly, 2.5 × 10^3 cells were seeded in each well of a 96-well round-bottom plate pre-coated with poly-Hema. The cells were allowed to grow and form spheroids for 72 h. The spheroids were then treated with [Os-(R4)2]^10+ at 100 μM for 24 and 48 h. The Alamar Blue reagent at a concentration of 10% was added to each well and incubated for 5 h at 37 °C. Fluorescence was measured at 535/590 excitation/emission wavelengths on a plate reader (Biotek) using Gen4 software. Background fluorescence was measured by using a blank consisting of medium only. Percentage viability was calculated relative to untreated controls.

A549 cells [7] = test: Phototoxicity under continuous 490 nm irradiation with DRAQ7; format: cell-based; details: A549 cells pretreated 30 μM/24 h, DRAQ7, continuous 490 nm irradiation 0.84 μW/cm^2, 3 h
Method: DRAQ7 was added to live A549 cells treated with [Os-(R4)2]^10+ (30 μM/24 h). A group of cells were selected for continuous irradiation using 490 nm excitation (0.84 μW/cm^2). Emission was collected between 650 and 800 nm for [Os-(R4)2]^10+. The 633 nm laser was used to excite DRAQ7, and emission was collected between 635 and 750 nm. This was repeated for an untreated control sample exposed to continuous irradiation and stained with DRAQ7.

cell membrane = details: parent complex without peptide; as reported previously; cited from earlier work
Method: Uptake of the Os(II) bis-octaarginine conjugate was studied in live A549 lung carcinoma and a non-cancerous CHO cell line. […] The conjugate remained as impermeable to the cell membrane as the parent Os(II) complex at 30 μM/24 h and 100 μM/24 h (Figure S12).

## N=C(N)NCCC[C@@H](NC(=O)[C@@H](CCCNC(=N)N)NC(=O)[C@@H](CCCNC(=N)N)NC(=O)[C@@H](CCCNC(=N)N)NC(=O)CCCCCNC(=O)c1ccc(-c2cc(-c3ccccn3)nc(-c3ccccn3)c2)cc1)C(N)=O [[Os-(R4)2]^10+] ({X1-Ahx}-[dR][dR][dR][dR]-NH2)
A549 cells [1]; A549 cells, 4 °C, 30 μM/24 h
  Cell permeation at 4 °C: inhibited
A549 cells [1]; 30 μM, dark, exc 490 nm, em 650-800 nm
  Cellular uptake / membrane permeation: rapidly and efficiently internalized
CHO cells [2]
  Cellular damage by DRAQ7 co-staining: entry of DRAQ7 (blue) in several cell nuclei
HPAC spheroids [3]; 30 μM/24 h
  Staining at the center of the spheroid, at 72 ± 5 μm: not observed
HPAC spheroids [3]; 30 μM/24 h, 3D reconstruction depth coding
  Spheroid penetration: spheroid penetration was evident
HPAC spheroids [3]
  Spheroid penetration / accumulation: throughout cell layers and deep into the spheroid core
HPAC spheroids [3]; 100 μM/24 h
  Spheroid penetration: extensive probe penetration and distribution to the core of the spheroid
CHO cells [4]; CHO cells, 30 μM/24 h
  Cell permeation: inhibited
CHO cells [4]; 30 μM, dark
  Cellular uptake / membrane permeation: rapidly and efficiently internalized
A549 cells [5]; 30 μM, 24 h and 48 h
  Cell viability by DRAQ7 co-staining: remained viable
A549 cells [5]; 100 μM, 48 h
  Cytotoxicity by DRAQ7 co-staining: modest cytotoxic effects
A549 cells [5]; 100 μM/24 h
  Cell death by DRAQ7 co-staining: no cell death was induced
HPAC spheroids [6]
  Spheroid viability: no evidence of toxicity
A549 cells [7]
  Photo-induced toxicity: non-photocytotoxic

## O=C(O)c1ccc(-c2cc(-c3ccccn3)nc(-c3ccccn3)c2)cc1.O=C(O)c1ccc(-c2cc(-c3ccccn3)nc(-c3ccccn3)c2)cc1.[Os+2] [[Os(tpybenzCOOH)2]^2+, Os(II) [bis-(4′-(4-carboxyphenyl)-2,2′:6′,2″-terpyridine)]]
A549 cells [1]; 100 μM
  Cellular uptake / membrane permeation: completely impermeable
HPAC spheroids [3]
  Spheroid penetration / accumulation: no spheroid penetration or accumulation was observed
CHO cells [4]; 100 μM
  Cellular uptake / membrane permeation: completely impermeable
Cell membrane
  Cell membrane permeability: cell membrane impermeable
